Experimental data from ChEMBL document CHEMBL3352694, “Structure-activity relationships (SAR) and structure-kinetic relationships (SKR) of bicyclic heteroaromatic acetic acids as potent CRTh2 antagonists I” (Bioorg Med Chem Lett, 2014).

What was measured:
[1] = biological target: T1, Prostaglandin D2 receptor 2 (Homo sapiens, UniProt Q9Y5Y4); test: Antagonist activity at CRTh2 receptor (unknown origin) overexpressed in CHOK1 cell membranes assessed as inhibition of [35S]-GTPgammaS binding at 1 to 5 uM preincubated for 1 hr followed by 50 nM PGD2 and 0.1 nM [35S]-GTPgammaS addition measured after 2 hrs by liquid scintillation counting analysis relative to control; type: functional, CHO-K1
T1 sequence (Q9Y5Y4 whole entry): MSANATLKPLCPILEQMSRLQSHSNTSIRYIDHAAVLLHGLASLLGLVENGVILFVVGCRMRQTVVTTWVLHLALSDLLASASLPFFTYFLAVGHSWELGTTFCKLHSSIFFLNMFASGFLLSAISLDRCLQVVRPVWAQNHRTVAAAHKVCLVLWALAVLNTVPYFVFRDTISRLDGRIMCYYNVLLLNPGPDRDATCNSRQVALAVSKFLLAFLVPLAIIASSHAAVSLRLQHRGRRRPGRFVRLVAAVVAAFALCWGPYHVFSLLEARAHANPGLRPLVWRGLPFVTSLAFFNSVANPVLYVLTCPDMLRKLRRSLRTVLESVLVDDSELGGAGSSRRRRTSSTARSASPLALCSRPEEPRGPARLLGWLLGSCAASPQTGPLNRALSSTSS

[2] = biological target: T2, Prostaglandin D2 receptor 2 (Homo sapiens) (UniProt Q9Y5Y4); details: CHO-K1
T2 sequence (whole entry): T1 sequence (Q9Y5Y4 whole entry)
Description: Binding affinity to CRTh2 receptor (unknown origin) overexpressed in CHOK1 cell membranes assessed as dissociation half life at 10 X IC50 preincubated for 1 hr followed [35S]-GTPgammaS addition measured after 2 hrs by liquid scintillation counting analysis

[3] = Thermodynamic solubility in pH 1.0 buffer after 24 hrs at 37 degC; type: physicochemical; details: read-out: Therm_solubility
[4] = Thermodynamic solubility in pH 7.4 buffer after 24 hrs at 37 degC; type: physicochemical; details: read-out: Therm_solubility
[5] = Apparent permeability of the compound at 20 uM incubated at 20 degC for 5 hrs in 2% DMSO containing PBS buffer solution by PAMPA assay; type: physicochemical
[6] = Lipophilicity, log D of the compound at pH 7.4 by shake flask method; type: physicochemical; details: buffer
[7] = Permeability of the compound assessed as mass balance at 20 uM incubated at 20 degC for 5 hrs in 2% DMSO containing PBS buffer solution by PAMPA assay; type: ADME; details: read-out: Activity
[8] = Drug metabolism in rat liver microsomes at 5 uM in presence of NADPH after 30 mins at 37 degC; type: ADME; details: read-out: Drug metabolism
[9] = Drug metabolism in rat liver microsomes assessed as phase-2 metabolism measured by glucuronidation level at 5 uM in presence of UDPGA after 2 hrs at 37 degC; type: ADME; details: read-out: Drug metabolism
[10] = Cmax in rat at 1 mg/kg; type: ADME, organism-based; design: dose 1 mg/kg; details: in vivo
[11] = AUC (0 to infinity) in rat at 1 mg/kg; type: ADME, organism-based; design: time infinity, dose 1 mg/kg; details: plasma
[12] = Clearance in rat at 1 mg/kg; type: ADME, organism-based; design: dose 1 mg/kg; details: in vivo
[13] = Volume of distribution at steady state in rat at 1 mg/kg; type: ADME, organism-based; design: dose 1 mg/kg; details: in vivo, read-out: Vdss
[14] = Terminal half life in rat at 1 mg/kg; type: ADME, organism-based; design: dose 1 mg/kg; details: in vivo, read-out: beta t1/2 (converted)
[15] = Mean residence time in rat at 1 mg/kg; type: ADME, organism-based; design: dose 1 mg/kg; details: in vivo
[16] = Oral bioavailability in rat at 10 mg/kg; type: ADME, organism-based; details: in vivo
[17] = Dissociation constant, acidic pKa of the compound by potentiometric assay; type: physicochemical
[18] = Dissociation constant, basic pKa of the compound by potentiometric assay; type: physicochemical
[19] = Antagonist activity at CRTh2 receptor in human eosinophil assessed as inhibition of PGD2-induced cell shape change
[20] = Drug metabolism in human liver microsomes at 5 uM in presence of NADPH after 30 mins at 37 degC; type: ADME; details: read-out: Drug metabolism
[21] = Drug metabolism in human liver microsomes assessed as phase-2 metabolism measured by glucuronidation level at 5 uM in presence of UDPGA after 2 hrs at 37 degC; type: ADME; details: read-out: Drug metabolism

`CCN(Cc1cc(C(F)(F)F)ccc1-c1cc(CC(=O)O)cc2cn(C)nc12)C(=O)C1CC1` showed an IC50 [1] of 0.048 µM and a T1/2 [2] of 1.2 h.
In the case of `CCN(Cc1cc(C(F)(F)F)ccc1-c1cn(CC(=O)O)c2ccccc12)C(=O)C1CC1`, the solubility thermodynamic at 24 h [3] is reported as less than 1 µg/mL, the solubility thermodynamic at 24 h [4] is reported as greater than 1000 µg/mL and the Papp at 5 h, 20 µM [5] is reported as 0.6 ×10⁻⁶ cm/s. It also gave a logD [6] of 1.4, a recovery at 5 h, 20 µM [7] of 71% and a metabolised at 0.5 h, 5 µM [8] of less than 5%. It also gave a metabolised at 2 h, 5 µM [9] of 32%, a Cmax [10] of 571 ng/mL and an AUC(0-inf) [11] of 559 ng·h/mL. For the same molecule, the clearance [12] was 30 mL/min/kg, the Vd [13] was 2.9 L/kg and the half-life [14] was 1.5 h. It also gave an MRT [15] of 1.6 h, a bioavailability [16] of 46% and a T1/2 [2] of 4 h.
`CCN(Cc1cc(C(F)(F)F)ccc1-c1cn(CC(=O)O)c2ccncc12)C(=O)C1CC1` gave an IC50 [1] of 0.043 µM, a pKa [17] of 2.4 and a pKa [18] of 7.8. It also gave a T1/2 [2] of 1.1 h.
Work on `CCN(Cc1cc(C(F)(F)F)ccc1-n1cc(CC(=O)O)c2ccccc21)C(=O)C1CC1` yielded an IC50 [19] of 0.084 µM.
`CCN(Cc1cc(C(F)(F)F)ccc1-c1cc(CC(=O)O)n2cccnc12)C(=O)C1CC1` gave a pKa [17] of 3.7, a pKa [18] of 1.7 and a solubility thermodynamic at 24 h [3] greater than 1000 µg/mL. For the same molecule, the solubility thermodynamic at 24 h [4] was greater than 1000 µg/mL and the IC50 [19] was 0.0014 µM.
`CCN(Cc1cc(C(F)(F)F)ccc1-c1nn(CC(=O)O)c2ccccc12)C(=O)C1CC1` gave a pKa [17] of 2.8, a solubility thermodynamic at 24 h [3] of less than 1 µg/mL and a solubility thermodynamic at 24 h [4] greater than 1000 µg/mL. The Papp at 5 h, 20 µM [5] was 0.18 ×10⁻⁶ cm/s, the logD [6] was 0.8 and the recovery at 5 h, 20 µM [7] was 81%. The metabolised at 0.5 h, 5 µM [8] was less than 5%, the metabolised at 0.5 h, 5 µM [20] was less than 5% and the metabolised at 2 h, 5 µM [9] was 12%. It also gave a metabolised at 2 h, 5 µM [21] of 35%, a Cmax [10] of 550 ng/mL and an AUC(0-inf) [11] of 440 ng·h/mL. The clearance [12] was 38 mL/min/kg, the Vd [13] was 5.4 L/kg and the half-life [14] was 2.4 h. The MRT [15] was 2.4 h, the T1/2 [2] was 1.6 h and the IC50 [19] was 0.047 µM.
Molecule `CCN(Cc1cc(C(F)(F)F)ccc1-n1cc(CC(=O)O)c2cccnc21)C(=O)C1CC1` has a pKa [17] of 2.4, a pKa [18] of 4.2 and a solubility thermodynamic at 24 h [3] greater than 1000 µg/mL. It also gave a solubility thermodynamic at 24 h [4] greater than 1000 µg/mL, a Papp at 5 h, 20 µM [5] of 1.1 ×10⁻⁶ cm/s and a logD [6] of 0.5. It also gave a recovery at 5 h, 20 µM [7] of 80%, a metabolised at 2 h, 5 µM [9] of 6% and a Cmax [10] of 926 ng/mL. It also gave an AUC(0-inf) [11] of 885 ng·h/mL, a clearance [12] of 19 mL/min/kg and a Vd [13] of 3.9 L/kg. It also gave a half-life [14] of 5.3 h and an MRT [15] of 3.4 h.
For `CCN(Cc1cc(C(F)(F)F)ccc1-c1cn(CC(=O)O)c2cccnc12)C(=O)C1CC1`, the pKa [17] was 2.5, the pKa [18] was 5.6 and the solubility thermodynamic at 24 h [3] was greater than 1000 µg/mL. For the same molecule, the solubility thermodynamic at 24 h [4] was greater than 1000 µg/mL.
Molecule `CCN(Cc1cc(C(F)(F)F)ccc1-c1cc(CC(=O)O)cn2nccc12)C(=O)C1CC1` has an IC50 [1] of 0.247 µM.
Molecule `CCN(Cc1cc(C(F)(F)F)ccc1-c1nc(CC(=O)O)c2ccccn12)C(=O)C1CC1` has an IC50 [1] of 0.082 µM, a pKa [17] of 3 and a pKa [18] of 4.8. For the same molecule, the solubility thermodynamic at 24 h [3] was greater than 1000 µg/mL and the T1/2 [2] was 0.7 h.
Work on `CCN(Cc1cc(C(F)(F)F)ccc1-c1cc(CC(=O)O)ccc1OC)C(=O)C1CC1` yielded an IC50 [1] of 0.016 µM, a Papp at 5 h, 20 µM [5] of 1.5 ×10⁻⁶ cm/s and a logD [6] of 0.6. The recovery at 5 h, 20 µM [7] was 91%, the metabolised at 0.5 h, 5 µM [20] was less than 5% and the metabolised at 2 h, 5 µM [9] was 21%. It also gave a metabolised at 2 h, 5 µM [21] of 28%, a Cmax [10] of 1530 ng/mL and an AUC(0-inf) [11] of 2420 ng·h/mL. It also gave a clearance [12] of 6.9 mL/min/kg, a Vd [13] of 2 L/kg and a half-life [14] of 5.9 h. For the same molecule, the MRT [15] was 4.7 h.
With `CCN(Cc1cc(C(F)(F)F)ccc1-c1cc(CC(=O)O)cn2cnnc12)C(=O)C1CC1` the IC50 [1] was 0.398 µM.
With `CCN(Cc1cc(C(F)(F)F)ccc1-c1cc(CC(=O)O)c2cccn2c1)C(=O)C1CC1` the IC50 [1] was 0.262 µM.
With `CCN(Cc1cc(C(F)(F)F)ccc1-c1cc(CC(=O)O)cn2ccnc12)C(=O)C1CC1` the IC50 [1] was 0.159 µM and the T1/2 [2] was 0.7 h.
For `CCN(Cc1cc(C(F)(F)F)ccc1-c1cc(CC(=O)O)cc2cnn(C)c12)C(=O)C1CC1`, the IC50 [1] was 0.048 µM and the T1/2 [2] was 1.4 h.
In the case of `CCN(Cc1cc(C(F)(F)F)ccc1-c1cc(CC(=O)O)c2ccnn2c1)C(=O)C1CC1`, the IC50 [1] is reported as 0.123 µM and the T1/2 [2] is reported as 0.2 h.
`CCN(Cc1cc(C(F)(F)F)ccc1-c1cc(CC(=O)O)c2ccncn12)C(=O)C1CC1` showed a T1/2 [2] of 1.5 h.
